Assay results: PMC8097335, “A High‐Affinity Calmodulin‐Binding Site in the CyaA Toxin Translocation Domain is Essential for Invasion of Eukaryotic Cells” (Advanced Science, 2021)

Key:
[1] = Membrane permeabilization of ANTS/DPX-loaded LUVs; conditions: for CP1/2, peptide concentration required to induce recovery of 50% of ANTS fluorescence intensity upon LUVs permeabilization: ANTS:DPX LUVs POPC:POPG 8:2, 0.45 mM lipid, buffer A pH 7.4, 25 °C, ex 390/em 515 nm, S.D. ± 5%; for Vesicle permeabilization (in words): ANTS:DPX LUVs POPC:POPG 8:2
Experimental: To monitor membrane permeabilization induced by peptides, ANTS (fluorophore probe) and
DPX (quencher) were encapsulated into large unilamellar vesicles (LUVs). The LUVs were
prepared at a concentration of 10 mM lipid at a POPC:PO PG molar ratio of 8:2 containing 20
mM ANTS and 60 mM DPX. The multilamellar vesicle suspension was extrudedthrough 0.4-
and 0.2 μm polycarbonate filters to produce LUVs. The unencapsulated ANT S a nd DPX we re
removed by gel filtration with a 5 mL Sephadex G -25 column (GE Healthcare Life Sciences ).
For permeabilization assays, LUVs were incubated in buffer A at 0.45 mM lipid
concentration at 25°C in a 101-QS cuvette (Hellma, France) and under constant stirring.
excitation wavelength was set at 390 nm and the emission of ANTS was continuously
measured at 515 nm. The maximum intensity of permeabilization, corresponding to the
maximum recovery of ANTS fluorescence, was measured after addition of 0.1% of Triton
X100. The concentration of membrane-bound peptide s required to induce the recovery of half
intensity of the ANTS fluorescence (C P1/2) was extracted from the permeabilization intensity
a s a function of peptide concentration 1.
LUVs were incubated in buffer B at a lipid concentration of 0.45 mM.
After a few seconds of permeabilization,
holo-Ca M wa s added t o t he solution at a peptide:Ca M molar ratio of 1:3. EDT A wa s
subsequently added in excess to chelate calcium and convert holo -CaM to apo -C a M .

[2] = Peptide titrations by SUVs followed by tryptophan fluorescence (solution-to-membrane partition); type: physicochemical; conditions: for Partition coefficient KX: POPC:POPG 8:2 SUVs, buffer A pH 7.4, 25 °C, tryptophan fluorescence ratio 330/370 nm; for Partition coefficient KX / ∆GKx for POPC POPG 8:2: S.D. within ± 10%; for Kd: converted from KX: [W]/KX = Kd, [W] = 55.5 M, read-out: Kd for POPC:POPG 8:2; for ∆GKx for POPC POPG 8:2: ∆GKx = -RT Ln Kx
Experimental: Lipid vesicles preparation
Small unilamellar vesicles (SUVs) and large unilamellar vesicles (LUVs) were prepared with POPC and POPG at a molar ratio of 8:2, at a lipid concentration of 10 mM in buffer A, as previously described 1. Briefly, SUVs and LUVs were prepared by reverse phase evaporation and filtered through polycarbonate filters of 1 μm and 0.2 μm of pore size diameter to obtain L UV. SUVs were further sonicated. The hydrodynamic diameters and mean net charge of the vesicles were measured by dynamic light scattering (DLS) and electrophoretic mobility, respectively, using a ZetaSizer NanoZS (Malvern Pananalytical , Orsay, France) 11.
Peptide titrations bySUV s and CaM followed by tryptophan fluorescence
Titrations were carried out with a FP-8200 Jasco spectrofluorimeter, equipped with a Pelt ie r - thermostated ETC-272T at 25°C. A bandwidth of 5 nm was used for both excitation and […]
(Hellma, France) with constant stirring. Fluorescence emission was recorded between 300 and […]
400 nm at a scan rate of 100 nm/min, with an excitation wavelength of 280 nm. Fluorescence emission spectra were corrected for SUV or CaM baselines . Fluorescence intensity ratio at 330 nm over 370 nm was use d to measure the partition coefficient (K X) of peptides between the solution andmembrane s 1, 12 and the affinity (K d) of peptides for CaM 13.
Determination of partition coefficient KX and dissociation constant Kd from […]
The partition coefficient KX is defined as the ratio of protein in the lipid (PL) and in buffer […]
(PW) pha se s 12, 14, expressed by: KKXX = [LL ]? , giving[PPWW ] [PPWW ]= [WW], where [W] the […]
concentration of water (55.5 M) and [L] the lipid concentration.
The fraction of peptide partitioned into the membrane, fPL, is equal to:
ffPPLL = [PPLL ][PPTT ]= [PPLL ][PPLL ]+[PPWW ]= 11+([PPWW ])= 11+( [WW]), where PT is the total concentration of peptides [PP TT ]= [PP LL ]+ [PP WW ]. […]
The equations a re fitted to the experimental data using the KaleidaGraph software, providing the KX and K d value s. The partition coefficient is related to the apparent dissociation constant:
KKXX × KKdd = [WW ] and to the free energy of partition ΔG Kx = -RTln(K X), where ΔG is the free energy in kcal/mol, R the gas constant (R = 1.98 x 10-3 kcal/mol/K) and T the temperature i n Kelvin. The free energy of peptide CaM interaction, ∆G Kd, is given by ΔG Kd = RTln(K d).
Sedimentation velocity-Analytical ultracentrifugation (SV -AUC) […]
ratio 1:1 (at 70 µM each). Samples were incubated 2h at 20°C in the ultracentrifuge and, then span at 42,000 rpm in an An-50 Ti rotor. […]

[3] = Synchrotron radiation circular dichroism, alpha-helical content (Bestsel); type: physicochemical; conditions: 25 °C, far-UV SRCD; for alpha-helical content, TFE 20%: 20% TFE; for alpha-helical content, POPC:POPG 8:2: SUVs POPC:POPG 8:2 at 2 mM lipid; for alpha-helical content, Solution: buffer A
Experimental: Synchrotron Radiation Circular Dichroism
Synchrotron radiation circular dichroism (SRCD) was performed on the DISCO beamline of the synchrotron SOLEIL (Saint -Aubin, France) . Spectra were recorded at 25°C with an integration time of 1.2 s and a bandwidth of 1 nm with a resolution of 1 nm. A far-UV spectrum represents the average of four individual scans. QS cells (Hellma, France) with a pathlength of 20, 50, 100 or 200 μm (depending on final protein concentrations) were used to record spectra in the fa r -UV range (from 190 to 250 nm). CD spectra of peptides and proteins were measured in buffers A and B, 20% of trifluoroethanol (TFE), in the presence of SUVs (POPC :PO PG 8: 2) or Ca M. Secondary structure content was estimated using Bestsel software […]
Table S8: Estimation of the α -helical content of P454-derived peptides. The secondary structure content is estimated using the on-line Bestsel software 17 available at http://bestsel.elte.hu/index.php. […]
peptide in buffer A, in 20% TFE and in the presence of POPC POPG (molar ratio 8:2) at 2 mM lipid concentration. The far -UV CD spectra of several P454-derived peptides are shown […]

[4] = target: T1, calmodulin (CaM) (Homo sapiens, UniProt P0DP23); test: Peptide titrations by CaM followed by tryptophan fluorescence, and ITC (Kd for CaM); type: binding; conditions: for Decrease of affinity for CaM relative to P454: from Table S3; for Kd: holo-CaM, from fluorescent titrations and ITC, 25 °C, average of at least three independent replicates; for Kd / ∆GKd for CaM: S.D. within ± 10%; for ∆GKd for CaM: ΔGKd = RTln(Kd)
T1 construct: made in house; host or cells: E. coli
Source text: peptides by CaM and is expressed as follows: 𝐾𝐾 𝑑𝑑 = [𝑃𝑃 ]∗[𝐶𝐶𝐶𝐶𝐶𝐶 ][𝑃𝑃:𝐶𝐶𝐶𝐶𝐶𝐶] , given 𝐾𝐾𝑑𝑑[𝐶𝐶𝐶𝐶𝐶𝐶]= [𝑃𝑃 ][𝑃𝑃 :𝐶𝐶𝐶𝐶𝐶𝐶]and the fraction of complex, fP:CaM, i s: 𝑓𝑓𝑃𝑃:𝐶𝐶𝐶𝐶𝐶𝐶 = [𝑃𝑃 :𝐶𝐶𝐶𝐶𝐶𝐶 ][𝑃𝑃:𝐶𝐶𝐶𝐶𝐶𝐶]+[𝑃𝑃]= 11+ [𝑃𝑃 ]= 11+ 𝐾𝐾𝑑𝑑.

Row | Molecule | CP1/2, peptide concentration required to induce recovery of 50% of ANTS fluorescence intensity upon LUVs permeabilization [1] [µM] | Partition coefficient KX [2] | Kd [2] [µM] | ∆GKx for POPC POPG 8:2 [2] [kcal/mol] | alpha-helical content, TFE 20% [3] [%] | alpha-helical content, POPC:POPG 8:2 [3] [%] | alpha-helical content, Solution [3] [%] | Decrease of affinity for CaM relative to P454 [4] | Kd [4] [µM] | ∆GKd for CaM [4] [kcal/mol] | Vesicle permeabilization (in words) [1]
1 | CC[C@H](C)[C@H](NC(=O)[C@H](C)NC(=O)[C@H](Cc1c[nH]cn1)NC(=O)[C@@H](NC(=O)[C@H](CC(C)C)NC(=O)[C@H](CCCNC(=N)N)NC(=O)[C@H](CCC(N)=O)NC(=O)[C@H](C)NC(=O)[C@H](C)NC(=O)[C@H](C)NC(=O)[C@@H](NC(=O)[C@H](C)NC(=O)[C@H](CCC(N)=O)NC(=O)[C@H](C)NC(=O)CNC(=O)[C@H](CCC(N)=O)NC(=O)[C@H](CC(C)C)NC(=O)[C@H](C)NC(=O)[C@H](CCCNC(=N)N)NC(=O)[C@H](CCC(N)=O)NC(=O)CNC(=O)[C@@H](N)Cc1c[nH]c2ccccc12)C(C)C)C(C)C)C(=O)N[C@@H](C)C(=O)N[C@@H](CC(C)C)C(N)=O [P458] | 1.26 | 190 ×10^3 | 290 | -7.2 | 50 | 23 ± 2 | 10 ± 4 | – | – | – | –
2 | Ac-ASAHAGQRAAQGAQAVAAAQRLVHAIALMTQ-NH2 [P454 W458A-L463A] | 6.59 | 22 ×10^3 | 2550 | -5.9 | 56 | 8 ± 2 | 7 ± 1 | 4 fold | 0.64 | -8.4 | –
3 | Ac-ASAHAGQRALQGAQAVAAAQRLVHAAALMTQ-NH2 [P454 W458A-I479A] | > 80 | 4.2 ×10^3 | 13200 | -4.9 | 55 ± 1 | 7 ± 3 | 10 ± 3 | – | 2.04 | -7.7 | do not permeabilize vesicles
4 | Ac-ASAHWGQAALQGAQAVAAAQALVHAIALMTQ-NH2 [P454 R12A] | 0.14 | 280 ×10^3 | 200 | -7.4 | – | – | – | – | – | – | –
5 | Ac-ASAHWGQKALQGAQAVAAAQKLVHAIALMTQ-NH2 [P454 R12K] | 0.09 | 220 ×10^3 | 260 | -7.3 | 45 ± 4 | 26 ± 1 | 13 ±2 | – | 0.05 | -9.9 | –
6 | Ac-ASAHWGQQALQGAQAVAAAQQLVHAIALMTQ-NH2 [P454 R12Q] | 0.23 | 70 ×10^3 | 790 | -6.6 | 50 ± 2 | 23 ± 1 | 8 ± 4 | – | 2.09 | -7.7 | –
7 | Ac-ASAHWGQQALQGAQAVAAAQRLVHAIALMTQ-NH2 [P454 R1Q] | 0.22 | 190 ×10^3 | 290 | -7.2 | – | – | – | – | 0.1 | -9.5 | –
8 | Ac-ASAHWGQRAAQGAQAVAAAQRAVSAAALMTQ-NH2 [P454 L463A-L475A-H477S-I479A] | > 50 | 35 ×10^3 | 1580 | -6.2 | 38 ± 2 | 5 ± 2 | 4 ± 1 | – | – | -6.8 | do not permeabilize vesicles
9 | Ac-ASAHWGQRAAQGAQAVAAAQRLVHAIALMTQ-NH2 [P454 L463A] | 0.41 | 630 ×10^3 | 90 | -7.9 | 48 ± 3 | 19 ± 2 | 14 ± 2 | – | 0.2 | -9.1 | –
10 | Ac-ASAHWGQRALQGAQAVAAAQQLVHAIALMTQ-NH2 [P454 R2Q] | 0.11 | 150 ×10^3 | 370 | -7 | – | – | – | – | 0.18 | -9.2 | –
11 | Ac-ASAHWGQRALQGAQAVAAAQRAVHAIALMTQ-NH2 [P454 L475A] | 0.64 | 350 ×10^3 | 160 | -7.7 | 45 ± 1 | 15 ± 1 | 5 ± 2 | – | 0.12 | -9.4 | –
12 | Ac-ASAHWGQRALQGAQAVAAAQRAVSAAALMTQ-NH2 [P454 L475A-H477S-I479A] | 9.03 | 18 ×10^3 | 3160 | -5.8 | 51 ± 4 | 6 ± 2 | 6 ± 2 | ≈ 20 fold | 1.54 | -7.9 | –
13 | Ac-ASAHWGQRALQGAQAVAAAQRLVHAAALMTQ-NH2 [P454 I479A] | 7.86 | 330 ×10^3 | 170 | -7.5 | 29 ± 1 | 12 ± 3 | 8 ± 2 | – | – | -7.9 | –
14 | Ac-ASAHWGQRALQGAQAVAAAQRLVHAIAAMTQ-NH2 [P454 L481A] | 0.06 | 780 ×10^3 | 70 | -8 | 49 ± 1 | 44 ± 3 | 5 ± 1 | – | 0.09 | -9.6 | –
